Experiments:
Type in all cases: cell-based
[1] = tested on: Micrococcus luteus; assay: Standard disc-plate method, zone of inhibition
Source text: (§1) The utility of the various compounds as intermediates to other compounds of the present invention will be evident from the preceding discussion. The antibacterial activity of these compounds, reflecting their utility in the control of susceptible bacterial infections in man and animals, as animal feed additives for promotion of growth, or as preservatives of materials biodegraded by susceptible microorganisms, is best measured by the standard disc-plate method routinely employed in clinical laboratories for determining the sensitivity of microorganisms to antimicrobial substances. Sensitivity discs are prepared by dipping a standard 6.25 mm. paper disc into a solution of the compound to be tested (conc. 1 mg./ml.) in a volatile solvent (e.g. methylene chloride) and the disc dried, producing discs containing approximately 25 microg. of the compound. The discs are placed on the surface of agar growth media seeded with the test microorganism, previously plated into Petri dishes. The plates are incubated overnight at 35°-37° C. Activity of the test compound is reflected by a zone of inhibition of bacterial growth around the test disc. The diameter of this zone provides a quantitative measure of the activity of the antibacterial substance. The activity of various compounds of the present invention is summarized in Table I. For comparison, results obtained with 10 microg. discs of ampicillin and penicillin G are included as positive controls.

[2] = tested on: Bacillus subtilis; assay: Standard disc-plate method, zone of inhibition
Source text: as §1

[3] = tested on: Staphylococcus aureus (Antibiotic Resistant); assay: Standard disc-plate method, zone of inhibition; details: for zone of inhibition at 25 µg/disc: 25 microgram discs
Source text: as §1

[4] = tested on: Escherichia coli; assay: Standard disc-plate method, zone of inhibition; details: for zone of inhibition at 25 µg/disc: Escherichia coli
Source text: as §1

[5] = tested on: Staphylococcus aureus; assay: Standard disc-plate method, zone of inhibition
Source text: as §1

[6] = tested on: Vibrio percolans; assay: Standard disc-plate method, zone of inhibition; details: for zone of inhibition at 25 µg/disc: 25 microgram discs
Source text: as §1

[7] = tested on: Serratia marcescens; assay: Serial dilution-tube method, MIC; details: brain heart infusion broth
[8] = tested on: Enterobacter cloacae; assay: Serial dilution-tube method, MIC; details: brain heart infusion broth
[9] = tested on: Staphylococcus aureus (Antibiotic Resistant); assay: Serial dilution-tube method, MIC; details: brain heart infusion broth
[10] = tested on: Klebsiella pneumoniae; assay: Serial dilution-tube method, MIC; details: brain heart infusion broth
[11] = tested on: Escherichia coli; assay: Serial dilution-tube method, MIC; details: brain heart infusion broth
[12] = tested on: Pseudomonas aeruginosa; assay: Serial dilution-tube method, MIC; details: brain heart infusion broth
[13] = tested on: Proteus morgani; assay: Serial dilution-tube method, MIC; details: brain heart infusion broth
[14] = tested on: Escherichia coli (Antibiotic Resistant); assay: Serial dilution-tube method, MIC; details: brain heart infusion broth
[15] = tested on: Staphylococcus aureus; assay: Serial dilution-tube method, MIC; details: brain heart infusion broth
[16] = Micrococcus luteus, 25 microgram discs
[17] = Bacillus subtilis, 25 microgram discs
[18] = Staphylococcus aureus, antibiotic resistant
[19] = Staphylococcus aureus, 25 microgram discs
[20] = positive control, 10 microgram discs

Row | SMILES | zone of inhibition at 25 µg/disc [1, 16] [mm] | zone of inhibition at 25 µg/disc [2, 17] [mm] | zone of inhibition at 25 µg/disc [3, 18] [mm] | zone of inhibition at 25 µg/disc ([4]; 25 microgram discs) [mm] | zone of inhibition at 25 µg/disc [5, 19] [mm] | zone of inhibition at 25 µg/disc ([6]; Comamonas terrigena) [mm] | also measured
1 | CC1=C(C(=O)OCOC(=O)C(C)(C)C)N2C(=O)CC2C1O (stereo not drawn) [H H POM CH3 H OH II, Pivaloyloxymethyl 1-Hydroxy-2-methylcarbapen-2-em-3-carboxylate] | 10 | 15 | 13 | 10 | 15 | – | –
2 | CC1=C(C(=O)OCOC(=O)C(C)(C)C)N2C(=O)C(NC(=O)c3c(-c4ccccc4)noc3C)C2C1=O (stereo not drawn) [MPI H POM CH3 O II, Pivaloyloxymethyl 2-Methyl-6-(5-methyl-3-phenylisoxazole-4-carboxamido)-1-oxocarbapen-2-em-3-carboxylate] | – | 21 | 9 | 0 | 0 | 0 | –
3 | CC(=O)OC(C)C1C(=O)N2C(C(=O)O)=C(C)C(OC(C)=O)C12 (stereo not drawn) [AET H H CH3 H OAc I, Sodium 6-alpha-(1-Acetoxyethyl)-1-acetoxy-2-methylcarbapen-2-em-3-carboxylate] | 26 | 25 | – | 0 | 21 | 10 | –
4 | CC1=C(C(=O)OCOC(=O)C(C)(C)C)N2C(=O)C(C(C)O)C2C1O (stereo not drawn) [HET H POM CH3 H OH I, pivaloyloxymethyl 6-alpha-(1-hydroxyethyl)-1-hydroxy-2-methylcarbapen-2-em-3-carboxylate] | – | – | – | – | – | – | Zone of Inhibition ([1]; 25 microgram discs): 31 mm; Zone of Inhibition ([2]; 25 microgram discs): 24 mm; Zone of Inhibition ([4]; 25 microgram discs): 14 mm; Zone of Inhibition ([5]; 25 microgram discs): 27 mm
5 | CC(=O)OCC1=C(C(=O)OCOC(=O)C(C)(C)C)N2C(=O)CC2C1=O (stereo not drawn) [H H POM CH2OAc O II, Pivaloyloxymethyl 2-Acetoxymethyl-1-oxocarbapen-2-em-3-carboxylate] | – | – | 12 | – | 0 | – | –
6 | CC1(C)S[C@@H]2[C@H](NC(=O)Cc3ccccc3)C(=O)N2[C@H]1C(=O)O [Penicillin, reference compound] | – | – | – | – | – | – | zone of inhibition at 10 µg/disc ([1]; Micrococcus luteus): 45 mm; zone of inhibition at 10 µg/disc ([6]; Comamonas terrigena, positive control, 10 microgram discs): 33 mm; zone of inhibition at 10 µg/disc ([2]; Bacillus subtilis, positive control, 10 microgram discs): 32 mm; zone of inhibition at 10 µg/disc ([3]; Staphylococcus aureus): 0 mm; Zone of Inhibition [4, 20]: 16 mm; zone of inhibition at 10 µg/disc ([5]; Staphylococcus aureus, positive control, 10 microgram discs): 31 mm
7 | CC(=O)OC(C)C1C(=O)N2C(C(=O)O)=C(C)C(O)C12 (stereo not drawn) [AET H H CH3 H OH I, Sodium 6-alpha-(1-Acetoxyethyl)-1-hydroxy-2-methylcarbapen-2-em-3-carboxylate] | 20 | 15 | – | 0 | 20 | 16 | –
8 | CC(=O)OC1C(C)C(C(=O)O)N2C(=O)C(NC(=O)COc3ccccc3)C12 (stereo not drawn) [PMA H H CH3 H OAc I, 1-Acetoxy-2-methyl-6-(2-phenoxyacetamido)carbapenam-3-carboxylic Acid] | 0 | 0 | 0 | 0 | 0 | – | –
9 | CC(=O)OC1C(C)=C(C(=O)[O-])N2C(=O)C(C(C)O)C12.[Na+] (stereo not drawn) [HET H H CH3 H OAc I, Sodium 6-alpha-(1-Hydroxyethyl)-1-acetoxy-2-methylcarbapen-2-em-3-carboxylate] | – | – | – | – | – | – | Minimum Inhibitory Concentration [7]: > 200 µg/mL; Minimum Inhibitory Concentration [8]: > 200 µg/mL; Minimum Inhibitory Concentration [9]: 100 µg/mL; Minimum Inhibitory Concentration [10]: > 200 µg/mL; Minimum Inhibitory Concentration [11]: > 200 µg/mL; Minimum Inhibitory Concentration [12]: > 200 µg/mL; Minimum Inhibitory Concentration [13]: > 200 µg/mL; Zone of Inhibition ([1]; 25 microgram discs): 13 mm; Zone of Inhibition ([2]; 25 microgram discs): 16 mm; Zone of Inhibition ([4]; 25 microgram discs): 0 mm; Zone of Inhibition ([5]; 25 microgram discs): 0 mm; Minimum Inhibitory Concentration [14]: > 200 µg/mL
10 | CC(=O)OC1C(C)=C(C(=O)OCOC(=O)C(C)(C)C)N2C(=O)CC12 (stereo not drawn) [H H POM CH3 H OAc II, Pivaloyloxymethyl 1-Acetoxy-2-methylcarbapen-2-em-3-carboxylate] | 0 | 14 | 0 | – | 13 | – | –
11 | CC1=C(C(=O)[O-])N2C(=O)C(C(C)O)C2C1O.[Na+] (stereo not drawn) [HET H H CH3 H OH I] | – | – | – | – | – | – | Minimum Inhibitory Concentration [15]: 1.56 µg/mL; Minimum Inhibitory Concentration [7]: 50 µg/mL; Minimum Inhibitory Concentration [8]: 25 µg/mL; Minimum Inhibitory Concentration [9]: 3.12 µg/mL; Minimum Inhibitory Concentration [10]: 50 µg/mL; Minimum Inhibitory Concentration [11]: 6.25 µg/mL; Minimum Inhibitory Concentration [12]: 200 µg/mL; Minimum Inhibitory Concentration [13]: 25 µg/mL; Zone of Inhibition ([1]; 25 microgram discs): 39 mm; Zone of Inhibition ([2]; 25 microgram discs): 29 mm; Zone of Inhibition ([4]; 25 microgram discs): 23 mm; Zone of Inhibition ([5]; 25 microgram discs): 29 mm; Minimum Inhibitory Concentration [14]: 12.5 µg/mL
12 | COC1=C(C(=O)O)N2C(=O)C(C(C)O)C2C1O (stereo not drawn) [HET H H OCH3 H OH I, Sodium 6-alpha-(1-Hydroxyethyl)-1-hydroxy-2-methoxycarbapen-2-em-3-carboxylate] | 42 | 22 | – | 11 | 27 | – | –
13 | CCN1CCN(C(=O)N[C@@H](C(=O)NC2C(=O)N3C(C(=O)OCOC(=O)C(C)(C)C)=C(C)C(=O)C23)c2ccccc2)C(=O)C1=O (stereo partly drawn) [EPA H POM CH3 O II, Pivaloyloxymethyl 2-Methyl-1-oxo-6-[2-phenyl-2-(4-ethyl-2,3-dioxopiperazine-1-carboxamido)acetamido]carbapen-2-em-3-carboxylate] | 0 | 0 | 0 | 0 | 0 | 20 | –
14 | CC1(C)S[C@@H]2[C@H](NC(=O)Cc3ccccc3)C(=O)N2[C@H]1C(=O)O [Penicillin G, reference compound] | – | – | – | – | – | – | Zone of Inhibition [1, 20]: 45 mm; Zone of Inhibition [6, 20]: 32 mm; Zone of Inhibition [2, 20]: 33 mm; Zone of Inhibition ([3]; positive control, 10 microgram discs, antibiotic resistant): 0 mm; Zone of Inhibition [4, 20]: 0 mm; Zone of Inhibition [5, 20]: 32 mm
15 | Cc1onc(-c2ccccc2)c1C(=O)NC1C(=O)N2C(C(=O)OCOC(=O)C(C)(C)C)C(C)C(=O)C12 (stereo not drawn) [MPI H POM CH3 O I, Pivaloyloxymethyl 2-Methyl-6-(5-methyl-3-phenylisoxazole-4-carboxamido)-1-oxocarbapenam-3-carboxylate] | – | 15 | 11 | 0 | 0 | 0 | –
16 | CC(=O)OC1C(C)=C(C(=O)O)N2C(=O)CC12 (stereo not drawn) [H H H CH3 H OAc II, Sodium 1-Acetoxy-2-methylcarbapen-2-em-3-carboxylate] | – | 13 | 8 | 0 | – | 18 | –
17 | COC1(NC(=O)COc2ccccc2)C(=O)N2C(C(=O)OCOC(=O)C(C)(C)C)=C(C)C(=O)C21 (stereo not drawn) [PMA OMe POM CH3 O II, Pivaloyloxymethyl 6-Methoxy-2-methyl-1-oxo-6-(2-phenoxyacetamido)carbapen-2-em-3-carboxylate] | – | 33 | 0 | 0 | 8 | 0 | –
